Data: patent US20100204157A1, “USE OF A PEPTIDE AS A THERAPEUTIC AGENT” (priority 2007, published 2010)
Where no end group is shown, it is not given here.

Tested on: drug-resistant Mycobacterium tuberculosis
Details: 5 micrograms per ml

FFVAP [Phe-Phe-Val-Ala-Pro]
% inhibition: 0.0%
